From publication PMC8739290, “A phase 1b study of erlotinib and momelotinib for the treatment of EGFR-mutated, tyrosine kinase inhibitor-naive metastatic non-small cell lung cancer” (Cancer Chemotherapy and Pharmacology, 2021)
Where two headings read alike, the source gives them in different places.

Legend:
[1] = test system: aldehyde oxidase; design: method as in PMID 32393528; conditions: cited from earlier work
[2] = test system: STAT3 signaling in EGFR-mutant cell lines; design: method as in PMID 25065853, PMID 22712764; conditions: via autocrine- and paracrine-secreted factors such as IL-6; cited from earlier work
[3] = test system: patients with EGFR TKI-naive, EGFR-mutated NSCLC; assay: Safety in phase 1b dose-escalation study: DLTs and adverse events (CTCAE version 4.03)
From the text: This was an open-label, dose-escalation phase 1b study, which comprised a dose-escalation phase, followed by a planned, randomized, expansion phase of the combination of erlotinib plus momelotinib vs. erlotinib alone (ClinicalTrials.gov Identifier: NCT02206763). An erlotinib lead-in was utilized during the dose-escalation phase since erlotinib’s toxicities of rash and diarrhea onset in the first 2–3 weeks of treatment allowing for (i) dose adjustment for erlotinib-related toxicities as per clinical standard of care prior to combination with momelotinib; (ii) examination of the impact of momelotinib on erlotinib steady-state pharmacokinetics; and (iii) accurate assessment of toxicity attribution during the combination treatment period.
Patients were screened within 28 days of the start of study treatment and cycles were defined as 28 days. Erlotinib was self-administered orally once daily (QD) at least 1 h before or 2 h after a meal, with doses permitted at 50, 75, 100, or 150 mg. Dose reductions were permitted for management of erlotinib-related toxicity such as rash and diarrhea. Momelotinib was dose escalated following a standard 3 + 3 design starting at 100 mg QD (Table 1). Momelotinib was self-administered orally QD or twice daily (BID) (Table 1), with the latter planned dosing frequency differing from that used in myelofibrosis trials. Study treatment continued until disease progression, unacceptable toxicity, or consent withdrawal.
The primary endpoint was the incidence of dose-limiting toxicities (DLTs). Physical exams and safety labs were performed on day 1 of cycle 1, day 15 of cycle 1, and on the first day of each cycle thereafter. Adverse events (AEs) were coded using the Medical Dictionary for Regulatory Activities (MedDRA), graded according to the Common Terminology Criteria for Adverse Events (CTCAE) version 4.03, and collected until 30 days after the last dose of the study treatment.
DLTs were assessed during the first 28 days of combined erlotinib and momelotinib treatment and defined as clinically significant AEs related to study treatment. Prespecified hematologic DLTs only included grade 4 neutropenia (absolute neutrophil count [ANC] < 500/μL) and grade 4 thrombocytopenia (platelet count < 25,000/μL). Important exceptions for related grade 3 nonhematologic toxicities included grade 3 nausea or vomiting ≤ 48 h duration, diarrhea or rash that improved to grade 0 to 1 within 21 days of interruption of erlotinib, and alanine aminotransferase (ALT) or aspartate aminotransferase (AST) ≥ 5 times the upper limit of normal (ULN) that improved to ≤ 3 times the ULN within 21 days. Treatment delays of ≥ 28 days due to a treatment-emergent AEs (TEAEs) were also considered DLTs.
(§1) Any patient who received ≥ 1 dose of study drug was included in the safety and efficacy analyses. Descriptive statistics were used to summarize study characteristics, DLTs, and AEs, including by dose level. ORR was summarized with corresponding two-sided 90% exact confidence intervals (CIs) using the binomial distribution. Both OS and PFS were summarized using Kaplan–Meier estimates and corresponding 90% CIs. Patient concentration data and PK parameters for erlotinib, momelotinib, and its major metabolite GS-644603 were summarized by dose level using descriptive statistics.

[4] = Pharmacokinetics of erlotinib during monotherapy and in combination with momelotinib (LC–MS/MS); assay type: in vivo, human; conditions: for Cmax: mean (%CV)
Protocol: (§2) Prior to momelotinib dosing, blood samples were collected before a dose of erlotinib and at 0.5, 1, 2, 4, 6, 8, and 24 h after erlotinib dosing. On day 15 of cycle 1, blood samples were collected at the same time points after dosing with momelotinib and erlotinib (the 24-h time point was only applicable for momelotinib QD dosing). The concentrations of momelotinib and its major metabolite GS-644603 were evaluated using a liquid chromatography-tandem mass spectrometry (LC–MS/MS) assay with solid phase extraction validated over the range of 0.5–1000 ng/mL for each analyte. The concentration of erlotinib was determined using an LC–MS/MS assay with protein precipitation validated over the range of 5–5000 ng/mL. […] Pharmacokinetic (PK) parameters were estimated using standard noncompartmental methods with Phoenix WinNonlin® software (Certara, Princeton, NJ).
as §1

[5] = test system: patients with EGFR-mutated NSCLC; conditions: erlotinib monotherapy, cited from earlier work
[6] = Steady-state pharmacokinetics of momelotinib and metabolite GS-644603 (LC–MS/MS, noncompartmental); assay type: in vivo, human; conditions: for half-life / Cmax / Tmax: day 15 of cycle 1; for half-life / Tmax: median (Q1, Q3); for Cmax: mean (%CV)
Protocol: as §2, §1

[7] = test system: patients with KRAS-mutated NSCLC; design: method as in PMID 30087028; conditions: cited from earlier work
[8] = test system: JAK1/2-mediated STAT3 phosphorylation in IL-6–stimulated human peripheral blood mononuclear cells; conditions: read-out: mean half maximal effective concentration, inhibition of JAK1/2-mediated STAT3 phosphorylation; cited from earlier work
[9] = test system: pSTAT3 in IL-6–stimulated lymphocytes; assay: pSTAT3 phospho-flow cytometry on whole blood of patients after 2 weeks on momelotinib (exploratory); assay type: cell-based, human; conditions: whole blood of 8 patients, data not shown
[10] = test system: pancreatic adenocarcinoma; design: method as in PMID 30105668; conditions: momelotinib added to nab-paclitaxel and gemcitabine; cited from earlier work
[11] = test system: EGFR-mutated NSCLC; assay: Efficacy in phase 1b study per RECIST version 1.1 (ORR, DoR, PFS, OS); assay type: in vivo, human
Protocol: Imaging by computed tomography (CT) with contrast was performed at baseline, every 8 weeks during year 1 and every 12 weeks thereafter. If a patient had brain metastases, brain magnetic resonance imaging (MRI) was repeated on the same schedule.

[12] = test system: colony formation in soft agar assays; design: method as in PMID 22319590; conditions: cited from earlier work
[13] = test system: patients who had progressed on at least 1 first-generation EGFR TKI; design: method as in PMID 31319994; conditions: ruxolitinib in combination with afatinib, cited from earlier work
[14] = test system: patients with documented progression on erlotinib; design: method as in PMID 27613527; conditions: ruxolitinib in combination with erlotinib, cited from earlier work
[15] = test system: HCC4006 xenograft model; design: method as in PMID 25065853; conditions: ruxolitinib plus erlotinib; cited from earlier work
[16] = test system: HCC-827 xenograft models; design: method as in PMID 22319590; conditions: cited from earlier work
[17] = erlotinib + momelotinib, all dose levels, n = 11
[18] = randomized phase 3 study, ref 33
[19] = human, in vivo, oral, momelotinib analyte, momelotinib 100 mg QD + erlotinib, n = 2
[20] = human, in vivo, oral, momelotinib analyte, momelotinib 200 mg QD + erlotinib, n = 2
[21] = momelotinib 200 mg QD vs 100 mg QD, with erlotinib, momelotinib analyte
[22] = with erlotinib, compared with ref 35

Compound: C#Cc1cccc(Nc2ncnc3cc(OCCOC)c(OCCOC)cc23)c1 [erlotinib]
- inhibition of aldehyde oxidase [1]: potent inhibitor
- effect on STAT3 signaling [2]: induce feedback activation of STAT3 signaling
- patients who discontinued erlotinib due to AEs ([3]; 2 of 11 patients: grade 4 neutropenia, grade 1 hepatitis B): 18.2%
- patients with dose reductions of erlotinib (all for AEs) ([3]; across all dose levels, with momelotinib): 4 patients
- diarrhea considered related to erlotinib [3, 17]: 63.6%
- dry skin considered related to erlotinib [3, 17]: 54.5%
- paronychia considered related to erlotinib [3, 17]: 54.5%
- erlotinib exposure (Cmax and AUCtau), monotherapy vs combination ([4]; day 1 of cycle 1 vs day 15 of cycle 1 with momelotinib, all momelotinib dose level groups): comparable
- Cmax ([4]; erlotinib monotherapy, Day 1, dose level 2A cohort, erlotinib 150 mg QD, n = 3): 2040.0 (42.5) ng/mL
- Cmax ([4]; erlotinib with momelotinib 100 mg BID, Day 15, erlotinib 150 mg QD, n = 5): 1782.0 (17.3) ng/mL
- Cmax ([4]; erlotinib with momelotinib 200 mg QD, Day 15, erlotinib 150 mg QD, n = 2): 1740.0 (17.9) ng/mL
- Cmax ([4]; human, in vivo, oral, erlotinib monotherapy, Day 1, dose level 1 cohort, erlotinib 150 mg QD (1 patient 100 mg QD), n = 3, read-out: Cmax): 1810 ng/mL
- neutropenia rate ([5]; randomized phase 3 study, ref 2): 0%
- decreased neutrophils rate [5, 18]: 1.8%
- neutropenia rate [5, 18]: 4.5%
- neutropenia rate ([5]; randomized phase 3 study, ref 34): 6%
- ANCs less than < 1000/mm^3 (grade 3 or greater) [5]: rarely observed
- ORR, range over prior studies [5]: 62.7 to 83%
- median PFS, range over prior studies [5]: 9.7 to 11 months

Compound: N#CCNC(=O)c1ccc(-c2ccnc(Nc3ccc(N4CCOCC4)cc3)n2)cc1 [momelotinib]
- half-life ([6]; human, blood, oral, momelotinib analyte, momelotinib 100 mg BID + erlotinib, n = 4): 8.6 h
- Cmax ([6]; human, in vivo, oral, momelotinib analyte, momelotinib 100 mg BID + erlotinib, n = 4): 884 ng/mL
- Cmax [6, 19]: 528 ng/mL
- half-life [6, 19]: 11.8 h
- Cmax [6, 20]: 852 ng/mL
- half-life [6, 20]: 10.2 h
- Tmax ([6]; human, in vivo, oral, momelotinib analyte, momelotinib 200 mg QD + erlotinib, n = 2, read-out: Tmax): 1.5 h
- dose proportionality of Cmax [6, 21]: slightly less than dose-proportional increase
- dose proportionality of exposure (AUCtau) [6, 21]: slightly more than dose-proportional increase
- Tmax ([6]; momelotinib analyte, momelotinib 100 mg BID + erlotinib, n = 4): 1.0 (1.0, 1.5) h
- Tmax ([6]; momelotinib analyte, momelotinib 100 mg QD + erlotinib, n = 2): 1.0 (1.0, 1.0) h
- time to momelotinib peak concentration after dosing ([6]; steady state, day 15 of cycle 1, with erlotinib): 1 to 2 h
- momelotinib maximum concentration and exposure compared with earlier reports [6, 22]: higher than previously reported
- momelotinib terminal elimination half-life compared with earlier reports [6, 22]: prolonged
- grade 1 reactivation of hepatitis B ([3]; 1 year after start of momelotinib + erlotinib, led to discontinuation of both): 1 patient
- treatment-related deaths ([3]; all dose levels, momelotinib + erlotinib): no treatment-related deaths observed
- dose interruptions of momelotinib ([3]; human, in vivo): 5 n
- dose reductions of momelotinib (due to AEs) ([3]; human, in vivo): 2 n
- patients who discontinued momelotinib for AEs ([3]; human, in vivo): 27.3%
- maximum tolerated dose (MTD) of momelotinib ([3]; in combination with standard dosing of erlotinib, 3 + 3 design, DLTs in first 28 days): 200 mg QD
- efficacy vs historical control trametinib monotherapy ([7]; momelotinib added to trametinib, KRAS-mutated NSCLC): did not improve efficacy
- neutropenia ([7]; momelotinib dosed up to 150 mg BID in combination with trametinib): no neutropenia event
- EC50 [8]: 259 nM
- pSTAT3 inhibition in IL-6–stimulated lymphocytes ([9]; after 2 weeks on treatment): temporarily inhibited pSTAT3 shortly after dosing
- correlation between total plasma momelotinib concentration and pSTAT3 inhibition [9]: no correlation
- efficacy vs historical control chemotherapy [10]: did not improve efficacy
- impact of momelotinib on the PK of erlotinib ([4]; momelotinib 100 mg QD, 200 mg QD, 100 mg BID): no impact
- reductions from baseline in sum of diameters of target lesions, range ([11]; momelotinib + erlotinib, across dose levels): 23.1 to 71.7%
- mean best percentage change in the sum of diameters of target lesions ([11]; momelotinib + erlotinib, across dose levels, N = 11): −42.5 ± 17.1%
- overall response rate (ORR), confirmed, all partial ([11]; momelotinib + erlotinib, all dose levels, 6 of 11 patients, 90% CI 27.1–80.0): 54.5%
- progressive disease (PD) as best response ([11]; momelotinib + erlotinib, 1 patient, dose level 2B): 9.1%
- stable disease ([11]; momelotinib + erlotinib, 4 of 11 patients): 36.4%
- median duration of response (DoR) ([11]; momelotinib + erlotinib, 90% CI 4.4–9.6): 7.2 months
- median PFS ([11]; momelotinib + erlotinib, Kaplan–Meier, 90% CI 6.2–12.4): 9.2 months
- median OS ([11]; momelotinib + erlotinib, data finalization April 24, 2017): not reached
- longest DoR ([11]; patient at dose level 2B, momelotinib 100 mg BID + erlotinib): 11.2 months

Compound: N#CC[C@H](C1CCCC1)n1cc(-c2ncnc3[nH]ccc23)cn1 [ruxolitinib]
- colony formation [12]: decreased colony formation
- objective response ([13]; patients with EGFR T790M, 5 of 20): 25%
- median PFS ([13]; patients with EGFR T790M, 95% CI 2.5–7.3): 4.9 months
- objective response ([13]; patients without EGFR T790M, 2 of 10): 20%
- median PFS ([13]; patients without EGFR T790M, 95% CI 0.0–8.8): 3.1 months
- objective response ([14]; 1 of 22 patients): 5%
- median PFS ([14]; 95% CI 1.5–4.1): 2.2 months
- combination activity compared to EGFR inhibition alone [15]: synergistic activity
- tumor growth [16]: slowed tumor growth
